From the supplement of paper PMC10307832

Assays:
Test in all cases: relative viability (nuclei count vs DMSO), 5 days (fraction); higher = more cells survive
Adavosertib + Navitoclax = compound: C=CCn1c(=O)c2cnc(Nc3ccc(N4CCN(C)CC4)cc3)nc2n1-c1cccc(C(C)(C)O)n1 [Adavosertib] + CC1(C)CCC(c2ccc(Cl)cc2)=C(CN2CCN(c3ccc(C(=O)NS(=O)(=O)c4ccc(N[C@H](CCN5CCOCC5)CSc5ccccc5)c(S(=O)(=O)C(F)(F)F)c4)cc3)CC2)C1 [Navitoclax] (partner 0.5 µM)
In short: (§1)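 Five library-drug doses in √10 steps were combined with a fixed anchor-drug dose, or a single drug was given alone, by pin tool to lung cancer cell lines in 1536-well plates the day after seeding. Nuclei were stained and counted after 5 days. Relative viability is the nuclei count in treated wells over that in vehicle wells, taken as the median of duplicate plates.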

Adavosertib + Lapatinib = compound: C=CCn1c(=O)c2cnc(Nc3ccc(N4CCN(C)CC4)cc3)nc2n1-c1cccc(C(C)(C)O)n1 [Adavosertib] + CS(=O)(=O)CCNCc1ccc(-c2ccc3ncnc(Nc4ccc(OCc5cccc(F)c5)c(Cl)c4)c3c2)o1 [Lapatinib] (partner 2 µM)
In short: as §1

Nelarabine + Luminespib = compound: COc1nc(N)nc2c1ncn2[C@@H]1O[C@H](CO)[C@@H](O)[C@@H]1O [Nelarabine] + CCNC(=O)c1noc(-c2cc(C(C)C)c(O)cc2O)c1-c1ccc(CN2CCOCC2)cc1 [Luminespib] (partner 0.01 µM)
In short: as §1

Nelarabine + Dasatinib = compound: COc1nc(N)nc2c1ncn2[C@@H]1O[C@H](CO)[C@@H](O)[C@@H]1O [Nelarabine] + Cc1nc(Nc2ncc(C(=O)Nc3c(C)cccc3Cl)s2)cc(N2CCN(CCO)CC2)n1 [Dasatinib] (partner 0.075 µM)
In short: as §1

Cell Line | relative viability (Adavosertib + Navitoclax; first compound 0.01 µM) | relative viability (Adavosertib + Navitoclax; first compound 0.03162 µM) | relative viability (Adavosertib + Navitoclax; first compound 0.1 µM) | relative viability (Adavosertib + Navitoclax; first compound 0.3162 µM) | relative viability (Adavosertib + Lapatinib; first compound 0.01 µM) | relative viability (Adavosertib + Lapatinib; first compound 0.03162 µM) | relative viability (Adavosertib + Lapatinib; first compound 0.1 µM) | relative viability (Adavosertib + Lapatinib; first compound 0.3162 µM) | relative viability (Nelarabine + Luminespib; first compound 0.01 µM) | relative viability (Nelarabine + Luminespib; first compound 0.03162 µM) | relative viability (Nelarabine + Luminespib; first compound 0.1 µM) | relative viability (Nelarabine + Luminespib; first compound 0.3162 µM) | relative viability (Nelarabine + Luminespib; first compound 1 µM) | relative viability (Nelarabine + Dasatinib; first compound 0.01 µM) | relative viability (Nelarabine + Dasatinib; first compound 0.03162 µM) | relative viability (Nelarabine + Dasatinib; first compound 0.1 µM) | relative viability (Nelarabine + Dasatinib; first compound 0.3162 µM) | relative viability (Nelarabine + Dasatinib; first compound 1 µM)
NCI-H1734 | 0.866 | 0.818 | 0.877 | 0.821 | 1.07 | 1.07 | 1.07 | 0.825 | 0.193 | 0.161 | 0.193 | 0.209 | 0.187 | 0.559 | 0.411 | 0.418 | 0.527 | 0.532
HCC-44 | 1.02 | 1.01 | 1.01 | 1.06 | 0.976 | 1.04 | 1.08 | 1.14 | 1.33 | 1.34 | 0.965 | 1.1 | 1.24 |  |  |  |  | 
HOP-62 | 1.12 | 1.16 | 1.4 | 1.35 | 1.14 | 1.23 | 1.04 | 1.11 | 1.19 | 0.736 | 1 | 1.1 | 0.961 | 0.635 | 0.636 | 0.395 | 0.764 | 0.738
NCI-H3122 | 1.07 | 1.02 | 1 | 1.01 | 1.01 | 0.924 | 1.07 | 1.07 | 0.0966 | 0.11 |  | 0.12 | 0.115 | 1.08 | 0.661 |  | 0.81 | 0.948
NCI-H2405 | 0.869 | 1.01 | 0.98 | 0.996 | 1.09 | 1.13 | 1.04 | 1.11 | 0.697 | 0.844 | 0.646 | 0.762 | 0.696 | 0.208 | 0.244 | 0.233 | 0.21 | 0.229
UMC-11 | 0.311 | 0.287 | 0.331 | 0.321 | 0.939 | 0.999 | 0.851 | 1.28 | 1.24 | 0.961 | 1.03 | 0.973 | 0.893 | 0.698 | 0.463 | 0.575 | 0.541 | 0.608
COR-L 105 | 0.886 | 0.72 | 0.746 | 0.617 | 0.361 | 0.428 | 0.373 | 0.349 | 0.701 | 0.822 | 0.792 | 0.669 | 0.904 | 0.339 | 0.402 | 0.259 | 0.351 | 0.319
NCI-H2085 | 1.28 | 1.05 | 1.06 | 1.11 | 0.743 | 0.813 | 0.86 | 0.836 | 0.498 | 0.48 | 0.427 | 0.518 | 0.434 | 0.231 | 0.26 | 0.177 | 0.192 | 0.199
IA-LM | 0.821 | 0.742 | 0.976 | 0.668 | 0.996 |  | 1.03 | 0.901 |  |  |  |  |  |  |  |  |  | 
NCI-H1792 | 0.529 | 0.659 | 0.655 | 0.643 | 0.824 | 0.931 | 0.919 | 0.937 | 0.406 | 0.537 | 0.451 | 0.425 | 0.55 |  | 0.876 | 0.627 | 0.95 | 0.846
